Experimental data published in ChEMBL document CHEMBL4507268 (2021).

Experiments:
[1] = biological target: Mitogen-activated protein kinase kinase kinase 9 (Homo sapiens) (UniProt P80192); details: Compound concentration 1000.0 nM
[2] = biological target: Myotonin-protein kinase (Homo sapiens) (UniProt Q09013); details: Compound concentration 1000.0 nM
[3] = biological target: Microtubule-associated serine/threonine-protein kinase 1 (Homo sapiens) (UniProt Q9Y2H9); details: Compound concentration 1000.0 nM
[4] = biological target: Mitogen-activated protein kinase kinase kinase 15 (Homo sapiens) (UniProt Q6ZN16); details: Compound concentration 1000.0 nM
[5] = biological target: Mitogen-activated protein kinase kinase kinase 6 (Homo sapiens) (UniProt O95382); details: Compound concentration 1000.0 nM
[6] = biological target: Transient receptor potential cation channel subfamily M member 6 (Homo sapiens) (UniProt Q9BX84); details: Compound concentration 1000.0 nM
[7] = biological target: Cyclin-dependent kinase 16 (Homo sapiens) (UniProt Q00536); details: Compound concentration 1000.0 nM
[8] = biological target: Protein-tyrosine kinase 6 (Homo sapiens) (UniProt Q13882); details: Compound concentration 1000.0 nM
[9] = biological target: Dual specificity mitogen-activated protein kinase kinase 4 (Homo sapiens) (UniProt P45985); details: Compound concentration 1000.0 nM
[10] = biological target: Ephrin type-A receptor 6 (Homo sapiens) (UniProt Q9UF33); details: Compound concentration 1000.0 nM
[11] = biological target: Ribosomal protein S6 kinase alpha-5 (Homo sapiens) (UniProt O75582); details: Compound concentration 1000.0 nM
[12] = biological target: Serine/threonine-protein kinase MRCK beta (Homo sapiens) (UniProt Q9Y5S2); details: Compound concentration 1000.0 nM
[13] = biological target: Tyrosine-protein kinase FRK (Homo sapiens) (UniProt P42685); details: Compound concentration 1000.0 nM
[14] = biological target: Serine/threonine-protein kinase PLK2 (Homo sapiens) (UniProt Q9NYY3); details: Compound concentration 1000.0 nM
[15] = biological target: T1, Myosin light chain kinase (Homo sapiens) (UniProt Q32MK0); details: Compound concentration 1000.0 nM
T1 sequence (whole entry): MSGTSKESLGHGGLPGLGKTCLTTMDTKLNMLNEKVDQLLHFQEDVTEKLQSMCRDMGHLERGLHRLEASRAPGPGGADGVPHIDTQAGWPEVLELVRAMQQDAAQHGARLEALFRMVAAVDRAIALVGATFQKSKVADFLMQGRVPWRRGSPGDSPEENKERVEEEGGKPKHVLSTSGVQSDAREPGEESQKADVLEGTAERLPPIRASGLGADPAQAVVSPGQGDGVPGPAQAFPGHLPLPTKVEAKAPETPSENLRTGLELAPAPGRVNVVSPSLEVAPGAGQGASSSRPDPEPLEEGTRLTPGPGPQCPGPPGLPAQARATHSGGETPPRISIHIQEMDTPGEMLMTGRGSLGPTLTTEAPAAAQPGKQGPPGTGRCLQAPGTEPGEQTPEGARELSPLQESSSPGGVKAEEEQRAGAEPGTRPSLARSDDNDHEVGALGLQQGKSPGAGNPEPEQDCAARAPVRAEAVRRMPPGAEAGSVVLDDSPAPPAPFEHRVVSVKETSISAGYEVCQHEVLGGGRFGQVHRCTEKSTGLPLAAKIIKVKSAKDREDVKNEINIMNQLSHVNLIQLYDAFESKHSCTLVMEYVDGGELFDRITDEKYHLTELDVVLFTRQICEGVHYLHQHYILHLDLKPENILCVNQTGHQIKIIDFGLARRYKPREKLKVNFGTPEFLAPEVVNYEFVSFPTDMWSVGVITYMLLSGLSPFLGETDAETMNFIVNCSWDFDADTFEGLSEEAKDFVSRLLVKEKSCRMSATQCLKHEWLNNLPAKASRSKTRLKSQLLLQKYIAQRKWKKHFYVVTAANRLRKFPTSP

[16] = biological target: T2, Serine/threonine-protein kinase ULK3 (Homo sapiens) (UniProt Q6PHR2); details: Compound concentration 1000.0 nM
T2 sequence (whole entry): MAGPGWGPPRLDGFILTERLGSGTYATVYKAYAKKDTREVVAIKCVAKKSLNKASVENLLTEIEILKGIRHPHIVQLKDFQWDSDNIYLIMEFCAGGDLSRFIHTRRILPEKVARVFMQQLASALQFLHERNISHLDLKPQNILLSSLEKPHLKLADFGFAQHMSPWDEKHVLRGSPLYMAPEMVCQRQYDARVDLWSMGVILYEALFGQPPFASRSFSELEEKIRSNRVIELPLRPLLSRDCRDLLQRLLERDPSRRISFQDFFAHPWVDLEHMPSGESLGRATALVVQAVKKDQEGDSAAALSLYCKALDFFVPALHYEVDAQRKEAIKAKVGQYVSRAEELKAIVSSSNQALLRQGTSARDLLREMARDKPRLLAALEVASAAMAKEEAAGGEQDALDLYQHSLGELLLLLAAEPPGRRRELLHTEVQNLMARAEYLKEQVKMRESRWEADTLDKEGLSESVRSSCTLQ

[17] = biological target: Bone morphogenetic protein receptor type-1A (Homo sapiens) (UniProt P36894); details: Compound concentration 1000.0 nM
[18] = test system: Mast/stem cell growth factor receptor Kit (Homo sapiens), P10721 [V559D,T670I]; details: Compound concentration 1000.0 nM
[19] = biological target: Serine/threonine-protein kinase 35 (Homo sapiens) (UniProt Q8TDR2); details: Compound concentration 1000.0 nM
[20] = test system: Receptor-type tyrosine-protein kinase FLT3 (Homo sapiens), P36888 [R834Q]; details: Compound concentration 1000.0 nM
[21] = biological target: Serine/threonine-protein kinase MARK1 (Homo sapiens) (UniProt Q9P0L2); details: Compound concentration 1.0 uM

Ribosomal protein S6 kinase alpha-5 (Homo sapiens), sequence (O75582 whole entry, looked up): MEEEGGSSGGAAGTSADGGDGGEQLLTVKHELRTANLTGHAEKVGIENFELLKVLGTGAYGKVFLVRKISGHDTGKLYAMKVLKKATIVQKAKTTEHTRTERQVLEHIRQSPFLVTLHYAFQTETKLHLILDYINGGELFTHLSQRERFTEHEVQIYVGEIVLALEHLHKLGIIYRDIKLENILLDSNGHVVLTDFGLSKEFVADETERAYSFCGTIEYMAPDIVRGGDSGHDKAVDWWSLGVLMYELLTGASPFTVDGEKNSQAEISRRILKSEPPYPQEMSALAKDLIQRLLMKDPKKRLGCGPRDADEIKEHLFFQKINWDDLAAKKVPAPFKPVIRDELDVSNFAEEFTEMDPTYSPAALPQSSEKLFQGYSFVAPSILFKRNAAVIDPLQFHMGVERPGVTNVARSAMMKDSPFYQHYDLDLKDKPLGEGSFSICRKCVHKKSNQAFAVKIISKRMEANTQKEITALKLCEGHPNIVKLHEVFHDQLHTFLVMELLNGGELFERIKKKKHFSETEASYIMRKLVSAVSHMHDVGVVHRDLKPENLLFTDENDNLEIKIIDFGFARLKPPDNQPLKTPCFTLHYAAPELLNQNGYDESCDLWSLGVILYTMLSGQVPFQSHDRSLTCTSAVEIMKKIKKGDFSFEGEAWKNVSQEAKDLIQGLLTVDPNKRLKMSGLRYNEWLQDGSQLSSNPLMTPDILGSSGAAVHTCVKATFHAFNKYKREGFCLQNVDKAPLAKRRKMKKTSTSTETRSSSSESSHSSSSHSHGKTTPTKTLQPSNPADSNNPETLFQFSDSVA
Tyrosine-protein kinase FRK (Homo sapiens), sequence (P42685 whole entry): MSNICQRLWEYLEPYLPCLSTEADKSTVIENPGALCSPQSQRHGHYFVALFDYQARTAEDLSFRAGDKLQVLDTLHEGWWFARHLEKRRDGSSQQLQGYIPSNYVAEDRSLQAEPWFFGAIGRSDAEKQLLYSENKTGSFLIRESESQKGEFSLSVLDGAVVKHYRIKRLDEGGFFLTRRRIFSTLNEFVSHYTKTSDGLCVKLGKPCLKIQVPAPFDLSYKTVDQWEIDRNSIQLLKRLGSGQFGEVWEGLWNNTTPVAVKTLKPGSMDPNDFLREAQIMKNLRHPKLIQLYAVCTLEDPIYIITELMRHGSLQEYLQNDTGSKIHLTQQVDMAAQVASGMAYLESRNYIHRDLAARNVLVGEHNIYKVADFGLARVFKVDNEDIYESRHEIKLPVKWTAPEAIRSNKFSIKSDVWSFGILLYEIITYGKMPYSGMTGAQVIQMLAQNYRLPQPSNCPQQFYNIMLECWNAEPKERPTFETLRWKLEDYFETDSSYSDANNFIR
Cyclin-dependent kinase 16 (Homo sapiens), sequence (Q00536 whole entry): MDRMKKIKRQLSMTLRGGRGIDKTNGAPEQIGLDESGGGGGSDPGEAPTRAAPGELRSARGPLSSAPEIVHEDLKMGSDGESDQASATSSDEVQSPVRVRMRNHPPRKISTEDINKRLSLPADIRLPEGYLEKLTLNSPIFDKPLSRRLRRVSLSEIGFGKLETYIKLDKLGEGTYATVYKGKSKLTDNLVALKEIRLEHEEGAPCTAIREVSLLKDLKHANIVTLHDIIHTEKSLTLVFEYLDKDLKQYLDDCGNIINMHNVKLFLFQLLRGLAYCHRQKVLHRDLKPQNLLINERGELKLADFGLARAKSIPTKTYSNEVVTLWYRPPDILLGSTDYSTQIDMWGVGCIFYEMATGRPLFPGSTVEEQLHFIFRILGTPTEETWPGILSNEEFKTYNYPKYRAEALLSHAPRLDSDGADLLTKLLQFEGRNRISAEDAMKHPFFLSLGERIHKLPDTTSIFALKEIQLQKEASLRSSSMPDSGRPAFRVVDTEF
Mast/stem cell growth factor receptor Kit (Homo sapiens), P10721 [V559D,T670I], sequence (P10721 whole entry V559D/T670I): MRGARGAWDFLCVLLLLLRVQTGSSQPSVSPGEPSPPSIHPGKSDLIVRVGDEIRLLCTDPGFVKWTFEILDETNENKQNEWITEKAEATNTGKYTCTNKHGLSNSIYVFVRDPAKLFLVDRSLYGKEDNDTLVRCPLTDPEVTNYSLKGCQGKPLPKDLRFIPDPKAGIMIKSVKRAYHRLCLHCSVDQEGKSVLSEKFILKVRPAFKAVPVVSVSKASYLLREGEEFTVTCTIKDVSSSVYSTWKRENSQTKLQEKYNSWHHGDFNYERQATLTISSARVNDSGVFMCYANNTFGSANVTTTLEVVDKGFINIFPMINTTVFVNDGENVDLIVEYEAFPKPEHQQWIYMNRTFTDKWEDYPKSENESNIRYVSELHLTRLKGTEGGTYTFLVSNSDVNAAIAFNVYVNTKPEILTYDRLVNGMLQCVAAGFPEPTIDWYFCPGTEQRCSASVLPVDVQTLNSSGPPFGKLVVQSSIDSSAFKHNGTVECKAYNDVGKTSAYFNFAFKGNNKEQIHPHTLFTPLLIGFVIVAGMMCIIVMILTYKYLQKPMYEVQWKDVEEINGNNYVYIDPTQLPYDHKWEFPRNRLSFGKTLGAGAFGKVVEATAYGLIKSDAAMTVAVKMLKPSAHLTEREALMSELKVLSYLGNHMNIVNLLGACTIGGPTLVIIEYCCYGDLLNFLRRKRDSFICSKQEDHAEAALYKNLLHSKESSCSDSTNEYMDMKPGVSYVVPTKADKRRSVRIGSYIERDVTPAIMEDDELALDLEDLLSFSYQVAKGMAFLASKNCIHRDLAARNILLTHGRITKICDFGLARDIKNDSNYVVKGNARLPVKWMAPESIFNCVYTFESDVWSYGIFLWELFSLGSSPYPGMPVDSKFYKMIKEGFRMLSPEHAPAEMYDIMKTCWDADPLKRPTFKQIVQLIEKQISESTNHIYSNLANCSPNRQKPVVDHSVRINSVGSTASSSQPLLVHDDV
Serine/threonine-protein kinase PLK2 (Homo sapiens), sequence (Q9NYY3 whole entry, looked up): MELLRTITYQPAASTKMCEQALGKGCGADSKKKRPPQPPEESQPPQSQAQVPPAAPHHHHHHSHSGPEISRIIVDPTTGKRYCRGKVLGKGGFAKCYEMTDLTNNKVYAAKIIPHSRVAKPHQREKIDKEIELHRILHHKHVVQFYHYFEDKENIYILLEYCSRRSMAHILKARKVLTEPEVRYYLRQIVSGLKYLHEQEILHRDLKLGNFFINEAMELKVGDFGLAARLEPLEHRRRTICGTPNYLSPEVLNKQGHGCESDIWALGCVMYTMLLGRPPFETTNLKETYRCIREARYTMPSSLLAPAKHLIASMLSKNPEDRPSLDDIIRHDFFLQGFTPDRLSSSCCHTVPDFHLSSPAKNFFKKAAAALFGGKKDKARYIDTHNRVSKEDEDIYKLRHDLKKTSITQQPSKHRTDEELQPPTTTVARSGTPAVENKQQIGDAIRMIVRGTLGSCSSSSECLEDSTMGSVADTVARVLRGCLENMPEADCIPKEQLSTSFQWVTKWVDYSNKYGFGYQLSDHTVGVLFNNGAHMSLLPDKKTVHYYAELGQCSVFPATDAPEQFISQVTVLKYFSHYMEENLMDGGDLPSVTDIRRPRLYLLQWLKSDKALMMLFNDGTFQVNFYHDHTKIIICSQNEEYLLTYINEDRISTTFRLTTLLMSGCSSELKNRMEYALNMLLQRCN
Mitogen-activated protein kinase kinase kinase 15 (Homo sapiens), sequence (Q6ZN16 whole entry): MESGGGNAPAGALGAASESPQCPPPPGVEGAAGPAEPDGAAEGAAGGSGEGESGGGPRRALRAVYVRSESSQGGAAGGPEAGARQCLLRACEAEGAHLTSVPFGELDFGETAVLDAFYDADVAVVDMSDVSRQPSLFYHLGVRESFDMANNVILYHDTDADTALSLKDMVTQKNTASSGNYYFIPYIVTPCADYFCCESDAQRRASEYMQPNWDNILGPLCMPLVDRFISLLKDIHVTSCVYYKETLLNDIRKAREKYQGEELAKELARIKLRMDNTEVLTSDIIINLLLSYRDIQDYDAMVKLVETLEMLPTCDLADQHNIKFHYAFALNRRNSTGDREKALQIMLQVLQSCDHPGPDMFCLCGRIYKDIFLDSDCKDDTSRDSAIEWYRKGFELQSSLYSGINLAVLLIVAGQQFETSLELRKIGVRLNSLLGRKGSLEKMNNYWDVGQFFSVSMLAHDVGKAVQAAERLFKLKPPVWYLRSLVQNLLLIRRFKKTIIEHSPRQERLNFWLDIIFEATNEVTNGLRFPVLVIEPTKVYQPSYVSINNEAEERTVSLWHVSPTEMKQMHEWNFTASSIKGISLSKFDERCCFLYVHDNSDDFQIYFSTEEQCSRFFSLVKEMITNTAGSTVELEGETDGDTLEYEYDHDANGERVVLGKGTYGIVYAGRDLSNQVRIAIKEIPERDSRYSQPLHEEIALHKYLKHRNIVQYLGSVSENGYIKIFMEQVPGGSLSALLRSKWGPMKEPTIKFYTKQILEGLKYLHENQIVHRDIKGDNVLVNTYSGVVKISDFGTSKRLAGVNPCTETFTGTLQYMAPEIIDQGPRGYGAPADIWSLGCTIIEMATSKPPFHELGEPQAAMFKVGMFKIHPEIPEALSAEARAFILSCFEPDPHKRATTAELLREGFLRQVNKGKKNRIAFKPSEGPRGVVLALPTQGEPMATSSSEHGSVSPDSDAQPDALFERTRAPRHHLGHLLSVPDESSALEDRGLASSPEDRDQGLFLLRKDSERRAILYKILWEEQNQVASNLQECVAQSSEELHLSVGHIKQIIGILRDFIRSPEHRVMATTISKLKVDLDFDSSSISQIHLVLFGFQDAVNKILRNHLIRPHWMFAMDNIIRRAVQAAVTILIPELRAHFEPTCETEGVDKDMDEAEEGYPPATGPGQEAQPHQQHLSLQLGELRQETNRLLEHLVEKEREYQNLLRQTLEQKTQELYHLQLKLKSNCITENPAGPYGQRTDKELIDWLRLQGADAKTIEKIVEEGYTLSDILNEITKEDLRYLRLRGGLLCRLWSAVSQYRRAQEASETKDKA

| Compound | residual activity [1] [%] | residual activity [2] [%] | residual activity [3] [%] | residual activity [4] [%] | residual activity [5] [%] | residual activity [6] [%] | residual activity [7] [%] | residual activity [8] [%] | residual activity [9] [%] | residual activity [10] [%] | residual activity [11] [%] | residual activity [12] [%] | residual activity [13] [%] | residual activity [14] [%] | residual activity [15] [%] | residual activity [16] [%] | residual activity [17] [%] | residual activity [18] [%] | residual activity [19] [%] | residual activity [20] [%] | also measured |
| --- | --- | --- | --- | --- | --- | --- | --- | --- | --- | --- | --- | --- | --- | --- | --- | --- | --- | --- | --- | --- | --- |
| Cc1nc(C2CCN(C(=O)c3ccc(OC(F)(F)F)cc3N)CC2)c2ncc(N3CCN(C)CC3)cc2n1 [BAY-693] | 97 | 100 | 100 | 92 | 100 | 100 | 100 | 100 | 100 | 95 | 100 | 100 | 95 | 74 | 100 | 46 | 80 | 100 | 100 | 100 |  |
| CN1CCN(c2cnc3c(C4CCN(C(=O)c5ccc(OC(F)(F)F)cc5N)CC4)ncnc3c2)CC1 [BAY-885] | 100 | 89 | 100 | 95 | 100 | 100 | 100 | 100 | 100 | 100 | 100 | 100 | 100 | 93 | 82 | 100 | 79 | 100 | 100 | 100 | % residual kinase activity [21]: 112% |
